Test results reported in patent US12016942B2, “Potassium hydrogen salts of alkylhydroxamates and compositions comprising the same” (Inolex Investment Corporation, priority 2021, dated 2024).

Columns and labels:
[1] = cited from earlier work
[2] = Titration of aqueous solutions with 0.1 N HCl; assay type: physicochemical; details: for titration endpoint: 0.24 wt % aqueous solution, 0.1 N HCl
Procedure: Aqueous solutions (0.24 wt %) of KH(CH)2 and NaCH were prepared by dissolving the respective compounds of Example 1 and Comparative Example 1 in deionized water. The solutions were titrated with 0.1 N HCl solution using a Metrohm autotitrator.

[3] = Solution pH of alkali metal salts of caprylhydroxamic acid in deionized water; assay type: physicochemical; details: for Solution pH Difference: NaCH minus KH(CH)2
From the text: In some cases, the pH adjuster brings the aqueous formulation including potassium hydrogen alkylhydroxamate salts to a lower pH value than if no pH adjuster were employed in the compound. The amount of pH adjuster will depend upon the concentration of the potassium hydrogen alkylhydroxamate salts in aqueous solution. […] […] Target pH levels for the formulations as disclosed herein, e.g., for personal care products and the like, are less than pH 8. Minimal additions of the pH adjuster are required when using potassium hydrogen alkylhydroxamate salt compounds as described herein to achieve the desired pH less than 8.

Structure (SMILES)	pKa [1]	titration endpoint [2] [mL]	Solution pH ([3]; 0.15 % in deionized water)	Solution pH ([3]; 0.25 % in deionized water)	Solution pH ([3]; 0.50 % in deionized water)	pH value in a 1% aqueous solution [3]	Solution pH ([3]; 1.00 % in deionized water)	less acid required to neutralize vs NaCH solution ([2]; identical concentration 0.24 wt %)	Solution pH Difference ([3]; 0.15 %)	Solution pH Difference ([3]; 0.25 %)	Solution pH Difference ([3]; 0.50 %)	Solution pH Difference ([3]; 1.00 %)
CCCCCCCC(=O)NO [CHA, caprylhydroxamic acid]	≈ 9.4	–	–	–	–	–	–	–	–	–	–	–
CCCCCCCC(=O)N[O-].O.[Na+] [Comparative Example 1, sodium octanohydroxamate monohydrate, reference compound]	–	18.4	10.26	10.85	10.95	11.0-11.5	11.10	–	–	–	–	–
CCCCCCCC(=O)NO.[K] [Example 1, potassium hydrogen caprylhydroxamate]	–	10.7	9.35	9.64	9.60	9.0-10.0	9.58	approximately 42%	0.91	1.21	1.35	1.52
